This assay deals with T1, testosterone 5α-reductase (Rattus norvegicus, UniProt P31214).
T1 construct: The prostates were drained, minced, and then homogenized in 3 -4 tissue volumes of medium A; from tissue; host or cells: ventral prostate of mature male Sprague-Dawley rats, resuspended 3,000 g pellet
T1 sequence (P31214 1-254): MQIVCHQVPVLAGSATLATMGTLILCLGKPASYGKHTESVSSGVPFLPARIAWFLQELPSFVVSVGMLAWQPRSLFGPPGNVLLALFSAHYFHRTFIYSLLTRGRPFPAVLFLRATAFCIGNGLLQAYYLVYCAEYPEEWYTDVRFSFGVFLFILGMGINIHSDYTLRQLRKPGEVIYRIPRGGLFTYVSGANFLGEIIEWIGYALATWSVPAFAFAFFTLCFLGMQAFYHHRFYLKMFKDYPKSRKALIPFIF
Briefly: Inhibitory activity on testosterone 5α-reductase in rats (rat ventral prostate suspension, 3H-testosterone). The class given is biochemical, rat (Spraque-Dawley male rats). The conditions noted are these: rat prostatic 5α-reductase; 2.2×10^-9 M testosterone, 50 μM NADPH, pH 6.5, 37° C., 30 minutes. An excerpt:
[2]Inhibitory activity on testosterone 5α-reductase in rats:
1,2,6,7-^3 H-testosterone (85-105 Ci/mmol) is a mixture of 1,2,6,7-3H-testosterone and testosterone which includes 85-105 Ci of 1,2,6,7-^3 H-testosterone per mmol of testosterone and is purchased from New England Nuclear, Boston, Mass., U.S.A.
Aquazol-2 (Aquazol-2 Universal LSC Cocktail) trademark, purchased from New England Nuclear, Boston, Mass., U.S.A. ii) Preparation of prostatic testosterone 5α-reductase
Mature Spraque-Dawley male rats (7-8 weeks old) were sacrificed by diethyl ether. The ventral prostates were dissected to be free of their capsules and their combined volume was measured by displacement in several milliliters of ice-cold medium A (0.32M sucrose, 0.1 mM dithiothreitol and 20 mM sodium phosphate, pH 6.5). Unless specified, all the following procedures were carried out at 0 -4. The prostates were drained, minced, and then homogenized in 3 -4 tissue volumes of medium A with Pyrex-glass homogenizer. […]
The reaction solution contains 1 mM dithiothreitol, 40 mM sodium phosphate pH 6.5, 50 μM NADPH, 1,2,6,7-^3 H-testosterone/testosterone (2.2×10^-9 M) and the suspension prepared above ([…]) in a total volume of 565 μl. […] The radioactivity was determined in 5 ml of Aquazol-2 in Packard scintillation counter (PACKARD TRI-CARB 4530), and an inhibitory ratio was calculated.

These results are taken from patent US5530019A, “Indole derivatives useful as testosterone 5α-reductase inhibitors” (Fujisawa Pharmaceutical Co., Ltd., priority 1993, dated 1996).

In turn, `CCCCCCCCCCC(=O)c1cn(CCCC(=O)O)c2ccccc12` [(1), 4-(3-Undecanoyl-1-indolyl)butyric acid] displayed a half-maximal inhibitory concentration (IC50) of 0.44 nM.

Broadly, the IC50 is the midpoint of a concentration-inhibition curve.
